Legend:
[1] = target: T1, hERG channel (Homo sapiens, UniProt Q12809); test: Inhibition of the hERG channel (manual patch clamp assay); format: cell-based; conditions: HEK293 cells stably transfected with hERG cDNA, whole-cell patch clamp, tail current
T1 construct: host or cells: HEK293
Text: The hERG patch clamp assay was done according to standard procedures used in Genetic Toxicology and Safety Pharmacology, based on recommendations and descriptions of methods in the literature, and according to current guidelines (ICH S7B, The non clinical evaluation of the potential for delayed ventricular repolarization (QT interval prolongation) by human pharmaceuticals, 2005). The purpose of the study is to assess the effect of the test item ABC123 on tail current recorded from HEK293 cells stably transfected with hERG cDNA. The HEK293 cells, which have been stably transfected with hERG cDNA, are a model considered to be suitable for this purpose (Zhou et al., 1998). Repolarisation of cardiac ventricular myocytes is mainly due to outward potassium currents. The most important current in humans is the delayed rectifier potassium current, IK, which has both rapidly and slowly activating components (IKr and IKs) (Sanguinetti and Jurkiewicz, 1990). The human ether-a-gogo-related-gene (hERG) encodes the major protein underlying IKr. Thus, inhibition of hERG potassium channels may lead to delayed cardiac repolarisation (Sanguinetti et al., 1995). Prolongation of cardiac repolarisation is a side effect that can be associated with some drug therapies. This proarrhythmic alteration is characterised by a prolongation of the QT interval in the surface electrocardiogram and is of particular concern because it may lead to the development of polymorphic ventricular arrhythmias like torsade de pointes (for review see: Vandenberg, Walker and Campbell, 2001). […] HERG HEK (HEK293 cells stably transfected with hERG cDNA) obtained from the University of Wisconsin were used. For the experiments the cells were plated onto sterile Thermanox plastic coverslips (Nalge Nunc International) in 6-well plates. The dishes were stored in a humidified, gassed incubator. The coverslips with cells were transferred to the recording chamber and continuously superfused (at approximately 1-2 ml/min) with vehicle. The temperature of the vehicle in the bath chamber was regulated by temperature controllers to 35° C.±2.0° C. hERG currents were measured in the whole-cell patch-clamp configuration. Once a stable patch clamp configuration was achieved, recording commenced in voltage-clamp mode, with the cell initially clamped at -75 mV. hERG current was observed and recorded if a stable hERG tail current response could be induced. […] The hERG HEK293 cells were treated approximately 9 min with the test item. The following voltage protocol was applied to induce hERG currents: The step from -75 mV to +10 mV activates an outward current (i.e. current flows out of the cell) and the step from +10 mV to -40 mV produces the tail current (the tail current represents the time taken for the current to turn off). […] The leak current was recorded and subtracted by a P/3n pulse between the voltage pulses (0.1 Hz).

[2] = system: phosphorylation of BLNK in Ramos B cells; test: Anti IgM-induced phosphorylation of BLNK in Ramos B cells; format: cell-based; conditions: Homo sapiens, 0.25 h, anti IgM 15 min, flow cytometry anti-BLNK (pY84)
Description: Anti IgM-induced phosphorylation of BLNK (BLNK=B cell linker (SLP65=SH2 domain containing leukocyte protein of 65 kDa)) in Ramos B cells: Ramos B cells in a volume of 25 μl were incubated with 25 μl of the compound solution at 2-fold the desired final concentration for 30 min. at 37° C. Then 50 μL anti IgM was added, mixed and incubated for 15 min. at 37° C. In each experiment 8-fold serial dilutions of compounds were tested. The stimulation was stopped by addition of 100 μL/well of PFA (para formaldehyde) I PBS (phosphate buffered saline) (final conc. 2% PFA) for fixation and incubated for 15 min. at 37° C., then centrifuged at 1300 rpm for 3 min and permeabilized by resuspending the cell pellet in 100 μL methanol 90% and further incubated for 30 min at 4° C. The cells were then washed and phosphoproteins were detected by flow cytometry using fluorescently labeled anti-BLNK ([…]) (BD Biosciences).

[3] = system: OCI-Ly3 cells; test: B-cell lymphoma cell proliferation (WST-1 assay), OCI-Ly3; format: cell-based; conditions: OCI-Ly3, 3 days of incubation
Description: Cell proliferation was determined using the WST-1 assay (Roche, Mannheim, Germany), which measures the metabolic activity of the cells. […] The cell proliferation reagent WST-1 (10 μl/well) was added to the cells for 1-2 hours depending on the cell type which were cultured in 200 μl of medium. The absorbance was then measured with an enzyme-linked immunosorbent assay plate reader at a wavelength of 450 nm.

[4] = system: HBL-1 cells; test: cells; conditions: HBL1, 96 h

T1 sequence (Q12809 whole entry): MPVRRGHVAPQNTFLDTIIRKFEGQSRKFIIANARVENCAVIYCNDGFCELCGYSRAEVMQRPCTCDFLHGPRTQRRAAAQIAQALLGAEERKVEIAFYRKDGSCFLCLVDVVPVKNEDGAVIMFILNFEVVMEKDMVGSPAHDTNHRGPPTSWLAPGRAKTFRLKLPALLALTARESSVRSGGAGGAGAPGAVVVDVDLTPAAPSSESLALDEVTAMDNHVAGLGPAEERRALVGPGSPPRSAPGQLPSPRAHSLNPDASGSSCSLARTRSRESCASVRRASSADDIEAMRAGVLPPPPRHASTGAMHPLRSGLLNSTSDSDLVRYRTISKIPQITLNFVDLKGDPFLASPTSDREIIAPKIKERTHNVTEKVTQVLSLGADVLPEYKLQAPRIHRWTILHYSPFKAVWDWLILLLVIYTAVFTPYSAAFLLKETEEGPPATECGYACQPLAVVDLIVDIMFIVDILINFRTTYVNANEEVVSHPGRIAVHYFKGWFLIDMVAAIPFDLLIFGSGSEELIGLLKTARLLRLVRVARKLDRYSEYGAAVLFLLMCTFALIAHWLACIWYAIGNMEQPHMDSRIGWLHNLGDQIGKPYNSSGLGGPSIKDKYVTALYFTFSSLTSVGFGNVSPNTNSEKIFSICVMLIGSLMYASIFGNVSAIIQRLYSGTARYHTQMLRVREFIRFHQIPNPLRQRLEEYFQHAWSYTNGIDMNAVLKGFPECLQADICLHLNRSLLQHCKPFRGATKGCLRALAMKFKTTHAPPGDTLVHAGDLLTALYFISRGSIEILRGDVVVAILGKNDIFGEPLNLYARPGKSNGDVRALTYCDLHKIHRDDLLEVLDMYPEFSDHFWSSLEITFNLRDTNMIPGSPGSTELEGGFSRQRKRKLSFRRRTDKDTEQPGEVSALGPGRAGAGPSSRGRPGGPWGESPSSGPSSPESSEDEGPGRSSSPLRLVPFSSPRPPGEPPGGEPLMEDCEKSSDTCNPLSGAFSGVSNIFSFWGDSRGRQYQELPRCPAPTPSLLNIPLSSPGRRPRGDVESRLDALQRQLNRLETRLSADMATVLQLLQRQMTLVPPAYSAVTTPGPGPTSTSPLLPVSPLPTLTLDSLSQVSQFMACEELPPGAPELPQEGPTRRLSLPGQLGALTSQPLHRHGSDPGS

NC(=O)c1nnc(N[C@@H]2CCCC[C@@H]2N)nc1Nc1cccc2cc[nH]c12 [Example 1.1, 3-((1R,2S)-2-Amino-cyclohexylamino)-5-(1H-indol-7-ylamino)-[1,2,4]triazine-6-carboxylic acid amide] gave an inhibition at 9 min, 10 µM ([1]; at 10 uM) of -5 ± 4%, an inhibition at 9 min, 30 µM ([1]; at 30 uM) of 12 ± 6% and an IC50 [2] of 0.106 µM. For the same molecule, the GI50 [3] was “No inhibition” and the GI50 [4] was 0.105 µM.
